The test system of one assay is PAI-1. As to the kind of experiment: Western blot of PAI-1 in primary culture of human coronary artery smooth muscle cells. The class given is cell-based. In general terms: In western blotting, separated proteins are transferred to a membrane and probed.
Another assay relates to renin mRNA expression. As to the kind of experiment: Northern blot analysis of renin mRNA expression in As4.1-hVDR cells. The class given is cell-based. As for the experimental part: (§1) Using an in vitro system, an examination was carried out in order to determine the ability of paricalcitol to suppress renin expression. […] This inhibitory activity is confirmed by renin promoter-luciferase assays, which examine the activity of paricalcitol to suppress renin gene transcription.

For another assay, the system named is renin gene promotor. As to the kind of experiment: renin promoter-luciferase assay. In kind it is cell-based. The settings on record: FIG. 2. The method, then: as §1
The subject of another assay is 24(OH)ase. As to the kind of experiment: effect of drugs on the expression of 24(OH)ase. In kind it is cell-based. The method, then:
Two observations may be noted in these studies: (1) 100% inhibition of growth was never achieved even at 1 μM of any of the test compound. Confocal microscopy studies confirm that, although these drugs are potent in inducing the translocation of VDR from cytoplasm to nucleus, not all cells respond to VDRAs even after 2 h of exposure, which may explain the <100% inhibition.

For assay [1] the following is noted: cited from earlier work.

Structures are written as SMILES.

On to `C=C1/C(=C\C=C2/CCC[C@]3(C)[C@@H]([C@H](C)CCCC(C)(C)O)CC[C@@H]23)C[C@@H](O)C[C@@H]1O` [calcitriol], for which, in the assay on PAI-1, the “potency in reducing the PAI level” value is reported as “equally potent”.

With `C[C@H](/C=C/[C@H](C)C(C)(C)O)[C@H]1CC[C@H]2/C(=C/C=C3C[C@@H](O)C[C@H](O)C3)CCC[C@]12C` [paricalcitol], the “renin-inhibiting activity relative to calcitriol” value with renin mRNA expression (FIG. 1A and B) is listed as “a bit more potent than calcitriol”. Besides, in the assay on renin mRNA expression (Northern blot, FIG. 1), the “inhibition of renin mRNA expression” value is given as “dose-dependently inhibits renin mRNA expression”. Also, the “suppressing the activity of the renin gene promotor, relative to calcitriol” value in the assay with renin gene promotor was “as least as potent as calcitriol”. Further, the “potency in reducing the PAI level” value in the assay with PAI-1 was “equally potent”. The “potency on stimulating the expression of 24(OH)ase relative to calcitriol” value in the assay on 24(OH)ase was “less potent than calcitriol”. The “survival benefit for CKD patients relative to calcitriol” value in assay [1] (CKD patients) is “more profound for paricalcitol over calcitriol”. Also, in assay [1] (clinical studies), the “potency in the clinical studies relative to calcitriol” value is “less potent than calcitriol”.

These data come from patent US20050074488A1, “Use of vitamin Ds to down regulate the renin-angiotensin-aldosterone system” (priority 2003, published 2005).
